Measurements published in patent publication US6063776A, “Sitostanol formulation with emulsifier to reduce cholesterol absorption and method for preparing and use of same” (Washington University, priority 1999, dated 2000).
Like-named read-outs stand apart in the source and are kept apart here.

What was measured:
[1] = Solubility in artificial bile of sonicated, lyophilized sitostanol mixtures (Example 6); format: physicochemical; settings: compared with lecithin and lysolecithin / SSL
Protocol: Solubility in artificial bile was determined by adding 8 mM sodium taurocholate 5 mM PC 0.15 M NaCl 15 mM sodium phosphate pH 7.4 (artificial bile), rotating for 30 min. at 37° and centrifuging at 17,000×g for 1 min. The pellet was washed once and the combined sups and pellet were counted separately.

cholesterol absorption = settings: cited from earlier work
serum cholesterol = settings: cited from earlier work
[2] = Solubility of sitostanol mixtures dried from chloroform in artificial bile (Example 1); format: physicochemical; settings: artificial bile (8 mM sodium taurocholate, 5 mM soy lecithin, pH 7.4), 37° C, 30 min; mixture dried from chloroform
Protocol: An aliquot, containing 1.2 μMol of sitostanol, was transferred to an evacuation tube and the solvent was removed under reduced pressure (<50 mtorr). The experiment was initiated by adding 0.5 mL of artificial bile (8 mM sodium taurocholate containing 5 mM soy lecithin and 0.15 mM NaCl, pH 7.4) followed by rotation at 8 rev/min for 30 min at 37° C. The tube was then centrifuged for 1 minute at 17,000×g to precipitate any solid material, the supernatant was removed and added to scintillation fluid for measurement of radioactivity, and the percent of radioactivity in the artificial bile supernatant was calculated.

[3] = in vivo; cited from earlier work
[4] = Solubility in artificial bile with variable amounts of lecithin, repeated extraction (Example 3); format: physicochemical; settings: tenfold excess of lecithin
Protocol: Sitostanol, tracer amount of [^3 H]sitostanol, and other compounds that are found in the gut or that are commonly used as food additives were mixed together in chloroform solution at a fixed mole ratio. An aliquot, containing 1.2 μMol of sitostanol, was transferred to an evacuation tube and the solvent was removed under reduced pressure (<50 mtorr). The experiment was initiated by adding 0.5 mL of artificial bile (8 mM sodium taurocholate containing 5 mM soy lecithin and […], pH 7.4) followed by rotation at 8 rev/min for 30 min at 37° C. The tube was then centrifuged for 1 minute at 17,000×g to precipitate any solid material, the supernatant was removed and added to scintillation fluid for measurement of radioactivity, and the percent of radioactivity in the artificial bile supernatant was calculated. Table I below summarizes the solubility of sitostanol mixtures in the presence of artificial bile salt.
The effectiveness of variable amounts of lecithin to solubilize sitostanol was studied as in Example #1, except that after rotation at 37° for 30 min residual sedimenting sitostanol was re-extracted twice by vortexing with 0.5 ml additional artificial bile and recentrifuging. The following results were obtained:
When [^3 H]phosphatidylcholine was added as a tracer instead of [^3 H]sitostanol, the amount of lecithin solubilized was 93.3%. […]

[5] = tested on: hypocholesterolemic activity; settings: rat, in vivo; cited from earlier work

CCCCCCCCCCCCCCCCCC(=O)OC(C)C(=O)OC(C)C(=O)[O-].[Na+] (centres unmarked) [SSL, Sodium stearoyl-2-lactylate]
effectiveness in solubilizing sitostanol [1]: as effective as lecithin and lysolecithin

sitostanol ester
less effective at reducing cholesterol absorption (cholesterol absorption; ester dissolved in dietary fat compared to the unesterified sterol, humans): 21%

neomycin
effect on cholesterol absorption (cholesterol absorption; given chronically (cholestyramine) or orally (neomycin)): reduces cholesterol absorption effectively

CC[C@H](CC[C@@H](C)[C@H]1CC[C@H]2[C@@H]3CC=C4C[C@@H](O)CC[C@]4(C)[C@H]3CC[C@]12C)C(C)C [sitosterol]
decrease of serum cholesterol levels (serum cholesterol; 3-9 g/day powdered sitosterol): 12% | reduction of serum cholesterol (serum cholesterol; 5-18 g sitosterol/day): 16-20%

CC[C@H](CC[C@@H](C)[C@H]1CC[C@H]2[C@@H]3CC[C@H]4C[C@@H](O)CC[C@]4(C)[C@H]3CC[C@]12C)C(C)C [Sitostanol, sitostanol]
Soluble Sterol [2]: 2.3% | absorption [3]: non-absorbable | sitostanol remaining insoluble [4]: 32% | potency relative to other phytosterols [5]: more potent than other phytosterols | reduction of serum cholesterol (serum cholesterol; 1.5 g/day, severe hypercholesterolemia): 15% | effect in moderate hypercholesterolemia (serum cholesterol; 3 g/day): no effect
